Numbers after ± are expanded uncertainties.
Assays:
[1] = Solid-liquid equilibrium temperature
[2] = Crystal 2; DTA

Structure (SMILES) | Triple point temperature [2] | Solid-liquid equilibrium temperature ([1]; 10000 kPa, Crystal 1, DTA) | Solid-liquid equilibrium temperature ([1]; 10000 kPa, Crystal 2, DTA) | Solid-liquid equilibrium temperature ([1]; 25000 kPa, Crystal 1, DTA) | Solid-liquid equilibrium temperature ([1]; 25000 kPa, Crystal 2, DTA) | Solid-liquid equilibrium temperature ([1]; 50000 kPa, Crystal 1, DTA) | Solid-liquid equilibrium temperature ([1]; 50000 kPa, Crystal 2, DTA) | Solid-liquid equilibrium temperature ([1]; 100000 kPa, Crystal 1, DTA) | Solid-liquid equilibrium temperature ([1]; 125000 kPa, Crystal 1, DTA) | Solid-liquid equilibrium temperature ([1]; 150000 kPa, Crystal 1, DTA) | also measured
CCCCCCCCCCCCCCCCCCCC [eicosane] |  |  |  |  |  |  |  |  |  |  | Solid-liquid equilibrium temperature ([1]; 33520 kPa, Crystal, DTA): 318.15 ± 0.33 K; Solid-liquid equilibrium temperature ([1]; 55080 kPa, Crystal, DTA): 323.15 ± 0.35 K; Solid-liquid equilibrium temperature ([1]; 76800 kPa, Crystal, DTA): 328.15 ± 0.37 K; Solid-liquid equilibrium temperature ([1]; 99090 kPa, Crystal, DTA): 333.15 ± 0.38 K; Solid-liquid equilibrium temperature ([1]; 150000 kPa, Crystal, DTA): 344.91 ± 0.41 K
CCCCCCCCCCCCCCCCCCCCCCCCCCCCCCCCCCCCCCCC [tetracontane] | 376.03 ± 0.41 K |  |  |  |  |  |  |  |  |  | Solid-liquid equilibrium temperature ([1]; 10000 kPa, Crystal 1): 357.34 ± 0.55 K; Solid-liquid equilibrium temperature ([1]; 10000 kPa, Crystal 2): 351.37 ± 0.54 K; Solid-liquid equilibrium temperature ([1]; 35758 kPa, Crystal 1): 363.15 ± 0.67 K; Solid-liquid equilibrium temperature ([1]; 48436 kPa, Crystal 2): 363.15 ± 0.7 K; Solid-liquid equilibrium temperature ([1]; 50000 kPa, Crystal 1): 367.26 ± 0.71 K; Solid-liquid equilibrium temperature ([1]; 50000 kPa, Crystal 2): 364.54 ± 0.7 K; Solid-liquid equilibrium temperature ([1]; 68114 kPa, Crystal 1): 371.15 ± 0.75 K; Solid-liquid equilibrium temperature ([1]; 73917 kPa, Crystal 2): 371.15 ± 0.76 K; Solid-liquid equilibrium temperature ([1]; 90000 kPa, Crystal 1): 376.58 ± 0.8 K; Solid-liquid equilibrium temperature ([1]; 112740 kPa, Crystal 1): 381.15 ± 0.84 K; Solid-liquid equilibrium temperature ([1]; 130000 kPa, Crystal 1): 385.22 ± 0.87 K
CCCCCCCCCCCCCCCCCCCCCCCC [tetracosane] | 339.59 ± 0.41 K | 326.74 ± 0.31 K | 324.24 ± 0.3 K | 330.4 ± 0.33 K | 328.4 ± 0.33 K | 336.12 ± 0.36 K | 334.94 ± 0.36 K | 346.93 ± 0.4 K | 352.26 ± 0.41 K | 357.28 ± 0.42 K | Solid-liquid equilibrium temperature ([1]; 40000 kPa, Crystal 1, DTA): 333.86 ± 0.35 K; Solid-liquid equilibrium temperature ([1]; 40000 kPa, Crystal 2, DTA): 332.37 ± 0.35 K
CCCCCCCCCCCCCCCCCCCCCCCCCCCCCC [triacontane] | 361.27 ± 0.41 K | 341.68 ± 0.31 K | 338.9 ± 0.31 K | 345.34 ± 0.34 K | 343.03 ± 0.34 K | 351.45 ± 0.37 K | 349.8 ± 0.37 K | 362.54 ± 0.41 K | 367.76 ± 0.42 K | 372.97 ± 0.44 K | Solid-liquid equilibrium temperature ([1]; 75000 kPa, Crystal 1, DTA): 357 ± 0.39 K; Solid-liquid equilibrium temperature ([1]; 75000 kPa, Crystal 2, DTA): 356.07 ± 0.39 K
